# Data reported in patent US20200368166A1, “Oral Formulations And Uses Thereof” (Eustralis Pharmaceuticals Limited (Trading As Pressura …, priority 2018, published 2020).
# Where “and” joins values, the source holds several entries; their conditions need not be identical. Identical values can stand only once.
# Legend:
# Format in all cases: physicochemical
# [1] = Bulk and tap density, Carr's index
# Method: Measurement of the bulk and tap density provides information on the flow properties and compressibility of the API. The bulk density is measured as the density of the material as it is “poured” or passively filled into a measuring vessel, whereas the tap density is a limiting density attained after “tapping in” the material. A Carr's index greater than 25 is considered to be an indication of poor flowability, and below 15, of good flowability.
# Measurement of the bulk and tap density provides information on the flow and compressibility of the blend. Bulk and tap density and the subsequent Carr's index were determined on the Formulation 5 blend and the results are given in Table 13.
# [2] = Solubility in dissolution media (sink conditions test); conditions: 37° C.
# Method: Selection of the dissolution medium is based on the solubility data and the dose range in order to ensure that sink conditions are met. The term ‘sink conditions’ is defined as the volume of medium at least greater than three times that required to form a saturated solution of drug substance.
# The sink conditions test was performed as per USP 38 <1092> in the following dissolution medium: • 1. HCl 0.01 N, • 2. Buffer pH 6.8, • 3. Water.
# Solubility determinations were performed on 75 mg of Compound (Ia) HCl dissolved in 250 mL of different media at 37° C. and stirred slightly. The λmax was determined by UV scan between 200-400 nm. Refer to Table 18 for the results.
# [3] = Intrinsic dissolution rate (IDR) of compressed disc; conditions: 200 mg disc, 100 rpm, 37° C.
# Method: The IDR is determined by monitoring the drug release rate of a compressed disc of the pre-formulated drug. The IDR is independent of formulation effects and measures the intrinsic properties of the drug and salts as a function of dissolution media effects such as pH and ionic strength. A comparison of the IDR of the drug in water with that obtained in acid and alkali will provide a measure of the drug's ability to control its immediate microenvironment.
# The IDR was determined by preparing a compressed disc containing 200 mg of Compound (Ia) 2HCl using slow compression. All metal surfaces were pre-lubricated using 4 drops of a 5% w/v solution of stearic acid in chloroform. The solvent was allowed to evaporate, the Compound (Ia) 2HCl added and the sample slowly compressed to 6 tonne. This pressure was maintained for 4 minutes to ensure adequate compression.
# The discs were then rotated at 100 rpm, 25 mm from the bottom of a 1 litre flat bottomed dissolution vessel containing 1 litre of fluid maintained at 37° C. Manual sampling, with a sampling volume of 5 mL, was employed at 5, 10, 15, 30 and 60 minutes. The amount of drug released was then monitored, by HPLC. Compound (Ia) 2HCl was evaluated in 0.01N HCl (equivalent to gastric pH), phosphate buffer pH 6.8 (intestinal) and distilled water. Refer Table 19 for the percentage of Compound (Ia) 2HCl released.
# [4] = pH of the API
# Source text: Compound (Ia) HCl (API) is an acidic compound with an approximate pH of 2.5. Compound of Formula (I), in particular compound (Ia) as shown below, is used in all examples, and in particular the 2HCl salt of compound (Ia) (Compound (Ia) 2HCl).
# [5] = Particle size distribution (Malvern Mastersizer)
# Method: The particle size distribution of compound (Ia) 2HCl (API) was determined using a Malvern Mastersizer. D(0.1) means that 10% of the sample is present as particles smaller than this size. D(0.5) means that 50% of the sample is present as particles smaller than this size. D(0.9) means that 90% of the sample is present as particles smaller than this size.
# [6] = API milled prior to GLP tablet manufacture (Table 16)
smiles,measurement,setting,value
Cc1ccccc1-c1cc(N2CCN(C)CC2)ncc1C(=O)N(C)Cc1cc(C(F)(F)F)cc(C(F)(F)F)c1 [Compound (Ia) 2HCl],Bulk Density,[1],0.63 g/mL
same,Carr's Index,[1],24.29%
same,Tap Density,[1],0.83 g/mL
same,Appearance,"[2]; 75 mg in 250 mL 0.01N Hydrochloric Acid (pH 2.0), full cell: Clear, homogeneous, translucent to light yellow.","Clear,"
same,Appearance,"[2]; 75 mg in 250 mL Phosphate Buffer (pH 6.8), full cell: White, turbid, heterogeneous liquid.","White, turbid,"
same,Time to Dissolve,[2]; 75 mg in 250 mL Purified Water,21 s
same,Appearance,"[2]; 75 mg in 250 mL Purified Water, full cell: Clear, homogeneous, translucent to light yellow.","Clear,"
same,% Released (IDR),"[3]; 0.01N 2HCl, t = 0 mins",0%
same,% Released (IDR),"[3]; 0.01N 2HCl, t = 5 mins",80% and 70%
same,% Released (IDR),"[3]; 0.01N 2HCl, t = 10 mins",100% and 97%
same,% Released (IDR),"[3]; 0.01N 2HCl, t = 15 mins",101% and 98%
same,% Released (IDR),"[3]; 0.01N 2HCl, t = 30 mins",102% and 99%
same,% Released (IDR),"[3]; 0.01N 2HCl, t = 60 mins",101% and 98%
same,% Released (IDR),"[3]; Phosphate buffer pH 6.8, t = 0 mins",0%
same,% Released (IDR),"[3]; Phosphate buffer pH 6.8, t = 5 mins",68% and 60%
same,% Released (IDR),"[3]; Phosphate buffer pH 6.8, t = 10 mins",85% and 81%
same,% Released (IDR),"[3]; Phosphate buffer pH 6.8, t = 15 mins",72% and 83%
same,% Released (IDR),"[3]; Phosphate buffer pH 6.8, t = 30 mins",73% and 77%
same,% Released (IDR),"[3]; Phosphate buffer pH 6.8, t = 60 mins",59% and 60%
same,% Released (IDR),"[3]; Water, t = 0 mins",0%
same,% Released (IDR),"[3]; Water, t = 5 mins",84% and 71%
same,% Released (IDR),"[3]; Water, t = 10 mins",101% and 98%
same,% Released (IDR),"[3]; Water, t = 15 mins",101% and 100%
same,% Released (IDR),"[3]; Water, t = 30 mins",100% and 102%
same,% Released (IDR),"[3]; Water, t = 60 mins",100%
same,approximate pH,[4],~2.5
same,Particle Size D (0.1),[5]; API before milling (Table 1),8.41 μm
same,Particle Size D (0.5),[5]; API before milling (Table 1),76.13 μm
same,Particle Size D (0.9),[5]; API before milling (Table 1),404.59 μm
same,Particle Size D (0.1),[5]; [6],1.2 μm
same,Particle Size D (0.5),[5]; [6],38.6 μm
same,Particle Size D (0.9),[5]; [6],133.3 μm
